Experimental data published in ChEMBL document CHEMBL3885861, “Open TG-GATES”.

Species on record: Rattus norvegicus
Assay: Open TG-GATES - Regimen: Daily Repeat
Type: toxicity, organism-based, Sprague-Dawley
Set-up: regimen Daily Repeat, gender Male, age 6 weeks
Conditions: in vivo, po, 300 mg/kg, route gavage, dose level Middle; for APTT / Bas / Eos / Fbg / Hb / Ht / Lym / MCH / MCHC / MCV / Mono / Neu / PT / Plat / RBC / Ret / WBC: tissue Blood; for KIDNEY_L / KIDNEY_R / KIDNEY_TOTAL: tissue Kidney; for LIVER: tissue Liver; for A/G / ALP / ALT / AST / BUN / CRE / Ca / Cl / DBIL / GLC / IP / K / LDH / Na / PL / RALB / TBIL / TC / TG / TP / gamma-GTP: tissue Plasma

## C[C@H]1O[C@H](O[C@H]2[C@H](O)[C@@H](O)[C@@H](O[C@H]3[C@H](O)[C@@H](O)C(O)O[C@@H]3CO)O[C@@H]2CO)[C@H](O)[C@@H](O)[C@@H]1N[C@H]1C=C(CO)[C@@H](O)[C@H](O)[C@H]1O (some centres not stated) [ACARBOSE]
72 h, time 3 day
  TERMINAL_BW: 230.6 g
  APTT: 16.3 s
  Bas: 0.2%
  Eos: 1%
  Fbg: 299.4 mg/dL
  Hb: 13.6 g/dL
  Ht: 41%
  Lym: 76.6%
  MCH: 21 pg
  MCHC: 33.3%
  MCV: 63 fL
  Mono: 3%
  Neu: 18.4%
  PT: 13 s
  Plat: 120.6 x10_4/uL
  RBC: 650.8 x10_4/ul
  Ret: 7.2%
  WBC: 104.1 x10_2/uL
  KIDNEY_L: 1.1 g
  KIDNEY_R: 1.1 g
  KIDNEY_TOTAL: 2.1 g
  LIVER: 11.2 g
  A/G: 0.9
  ALP: 1565.8 IU/L
  ALT: 39.4 IU/L
  AST: 67.2 IU/L
  BUN: 12.6 mg/dL
  CRE: 0.2 mg/dL
  Ca: 10.7 mg/dL
  Cl: 103 meq/L
  DBIL: 0.01 mg/dL
  GLC: 170.8 mg/dL
  IP: 8.2 mg/dL
  K: 3.9 meq/L
  LDH: 89.6 IU/L
  Na: 140.4 meq/L
  PL: 148.4 mg/dL
  RALB: 2.6 g/dL
  TBIL: 0.06 mg/dL
  TC: 81 mg/dL
  TG: 98 mg/dL
  TP: 5.5 g/dL
  gamma-GTP: 1.2 IU/L
[…], time 7 day
  TERMINAL_BW: 272.1 g
  APTT: 17.2 s
  Bas: 0%
  Eos: 1%
  Fbg: 323 mg/dL
  Hb: 14.1 g/dL
  Ht: 41.7%
  Lym: 74.6%
  MCH: 21.1 pg
  MCHC: 33.8%
  MCV: 62.4 fL
  Mono: 2.6%
  Neu: 21%
  PT: 13.1 s
  Plat: 128.3 x10_4/uL
  RBC: 669.4 x10_4/ul
  Ret: 6.1%
  WBC: 95.8 x10_2/uL
  KIDNEY_L: 1.1 g
  KIDNEY_R: 1.1 g
  KIDNEY_TOTAL: 2.3 g
  LIVER: 12.7 g
  A/G: 0.9
  ALP: 1607 IU/L
  ALT: 50 IU/L
  AST: 77.2 IU/L
  BUN: 16.4 mg/dL
  CRE: 0.2 mg/dL
  Ca: 10.9 mg/dL
  Cl: 104.2 meq/L
  DBIL: 0.012 mg/dL
  GLC: 183.6 mg/dL
  IP: 7.5 mg/dL
  K: 4.2 meq/L
  LDH: 80.6 IU/L
  Na: 142 meq/L
  PL: 147.6 mg/dL
  RALB: 2.6 g/dL
  TBIL: 0.054 mg/dL
  TC: 75 mg/dL
  TG: 91.6 mg/dL
  TP: 5.7 g/dL
  gamma-GTP: 1 IU/L
[…], time 14 day
  TERMINAL_BW: 332.7 g
  APTT: 23.4 s
  Bas: 0%
  Eos: 0.8%
  Fbg: 272.2 mg/dL
  Hb: 14.8 g/dL
  Ht: 44%
  Lym: 78.8%
  MCH: 21 pg
  MCHC: 33.7%
  MCV: 62.2 fL
  Mono: 2%
  Neu: 17.8%
  PT: 13.2 s
  Plat: 126.6 x10_4/uL
  RBC: 706.8 x10_4/ul
  Ret: 5%
  WBC: 105.8 x10_2/uL
  KIDNEY_L: 1.2 g
  KIDNEY_R: 1.3 g
  KIDNEY_TOTAL: 2.5 g
  LIVER: 15.1 g
  A/G: 0.8
  ALP: 1744.6 IU/L
  ALT: 39 IU/L
  AST: 69.8 IU/L
  BUN: 16.2 mg/dL
  CRE: 0.2 mg/dL
  Ca: 10.6 mg/dL
  Cl: 105 meq/L
  DBIL: 0.01 mg/dL
  GLC: 186 mg/dL
  IP: 6.8 mg/dL
  K: 4.1 meq/L
  LDH: 95.2 IU/L
  Na: 142 meq/L
  PL: 141.6 mg/dL
  RALB: 2.7 g/dL
  TBIL: 0.05 mg/dL
  TC: 67.4 mg/dL
  TG: 135.4 mg/dL
  TP: 5.9 g/dL
  gamma-GTP: 1 IU/L
[…], time 28 day
  TERMINAL_BW: 401.7 g
  APTT: 20.2 s
  Bas: 0%
  Eos: 1%
  Fbg: 282.8 mg/dL
  Hb: 15.3 g/dL
  Ht: 44.4%
  Lym: 79.6%
  MCH: 20.2 pg
  MCHC: 34.4%
  MCV: 58.6 fL
  Mono: 2%
  Neu: 16%
  PT: 13.7 s
  Plat: 95.8 x10_4/uL
  RBC: 757.4 x10_4/ul
  Ret: 2.2%
  WBC: 88.5 x10_2/uL
  KIDNEY_L: 1.4 g
  KIDNEY_R: 1.3 g
  KIDNEY_TOTAL: 2.7 g
  LIVER: 16.3 g
  A/G: 0.8
  ALP: 1170.4 IU/L
  ALT: 46.4 IU/L
  AST: 70.8 IU/L
  BUN: 15.6 mg/dL
  CRE: 0.2 mg/dL
  Ca: 10.8 mg/dL
  Cl: 105 meq/L
  DBIL: 0.012 mg/dL
  GLC: 190.8 mg/dL
  IP: 5.9 mg/dL
  K: 4.1 meq/L
  LDH: 82.6 IU/L
  Na: 142.2 meq/L
  PL: 141.6 mg/dL
  RALB: 2.7 g/dL
  TBIL: 0.048 mg/dL
  TC: 65.4 mg/dL
  TG: 154.8 mg/dL
  TP: 6 g/dL
  gamma-GTP: 1 IU/L
